{"source": "patent US20030152525A1", "about": "“Stable oral compositions comprising casein phosphopeptide complexes and fluoride” (The Procter & Gamble Company, priority 2002, published 2003)", "origin": "cited, not measured here", "conditions": "solutions containing 0.1% w/v peptide, various pH, calcium and phosphate concentrations, constant ionic strength; as discussed in WO 98/40406", "data": [{"substance": "Gln^59-Met-Glu-Ala-Glu-Ser(P)-Ile-Ser(P)-Ser(P)-Ser(P)-Glu-Glu-Ile-Val-Pro-Asn-Ser(P)-Val-Glu-Gln-Lys^79 [αs1 (59-79) [1]]", "values": [{"measurement": "calcium maximally bound per molecule of peptide", "result": 24, "unit": "per molecule"}, {"measurement": "phosphate maximally bound per molecule of peptide", "result": 16, "unit": "per molecule"}]}]}
